Measured values reported in article PMC12775434, “Ultra-large virtual screening unveils potent agonists of the neuromodulatory orphan receptor GPR139” (Nature Communications, 2025).
Several values for one entry are separate records, joined by “and”; a condition that tells them apart may be missing. Equal entries are not always repeated.

Molecular target: T1, human muscarinic acetylcholine M1 receptor (M1R) (Homo sapiens, UniProt P11229)
T1 sequence (P11229 1-460): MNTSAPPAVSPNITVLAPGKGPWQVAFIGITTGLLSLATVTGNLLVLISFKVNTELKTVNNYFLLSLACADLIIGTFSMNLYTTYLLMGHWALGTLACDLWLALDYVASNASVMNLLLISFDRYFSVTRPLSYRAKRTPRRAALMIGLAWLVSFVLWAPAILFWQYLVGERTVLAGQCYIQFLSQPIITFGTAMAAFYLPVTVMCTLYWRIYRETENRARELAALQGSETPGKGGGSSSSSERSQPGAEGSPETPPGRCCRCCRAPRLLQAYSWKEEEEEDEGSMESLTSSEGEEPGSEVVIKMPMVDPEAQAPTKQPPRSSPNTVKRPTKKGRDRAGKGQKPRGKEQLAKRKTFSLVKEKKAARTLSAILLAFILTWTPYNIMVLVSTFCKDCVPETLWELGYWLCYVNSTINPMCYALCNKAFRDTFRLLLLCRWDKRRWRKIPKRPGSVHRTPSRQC
Assay: Ca2+ mobilization counter-screen in M1R-CHOk1 cells;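 also: 10 µM test compound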
Type: cell-based
Summary of the method: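 Intracellular calcium flux was measured by fluorescence (485 nm excitation, 525 nm emission) at 37 °C after automated compound addition following baseline, with final DMSO ≤0.3%. CHO-K1 cells stably expressing human M1R were plated 20–24 h beforehand. Cells were dye-loaded with 2 µM Fluo-4 AM for 1 h in pH 7.4 HEPES/HBSS containing 2.5 mM probenecid.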

[1] = individual replicates (Supplementary Figure 5)
[2] = individual replicates (Supplementary Figure 2)

Compound	Ca2+ signal (% of Carbachol) [1]	Ca2+ signal (% of Carbachol) [2]	also measured
COc1ccccc1-c1nc(CC(=O)NC(C)c2ccccc2)no1 (stereo not drawn) [Compound 1.2, COC1=C(C2=NC(CC(NC(C3=CC=CC=C3)C)=O)=NO2)C=CC=C1]	-21 % of Carbachol and 0.491 % of Carbachol and -3.3 % of Carbachol	–	–
Cc1cc(-c2nc(CC(=O)NC(C)c3ccccc3)no2)sc1C (stereo not drawn) [Compound 1, CC(NC(=O)CC1=NOC(=N1)C2=CC(C)=C(C)S2)C=3C=CC=CC3]	–	-12 % of Carbachol and -15 % of Carbachol	–
Cc1cscc1-c1nc(CC(=O)NC(C)c2ccccc2)no1 (stereo not drawn) [Compound 1.1, CC(C1=CC=CC=C1)NC(CC2=NOC(C3=CSC=C3C)=N2)=O]	-5 % of Carbachol and -11 % of Carbachol	–	–
COC(=O)c1cc(NC(=O)NC(C)c2cccc(F)c2F)ccc1C (stereo not drawn) [Compound 2, COC(=O)C=1C=C(NC(=O)NC(C)C=2C=CC=C(F)C2F)C=CC1C]	–	-10 % of Carbachol and 1.81 % of Carbachol	–
Cc1cc(-c2nc(CC(=O)NC(C)c3ccccc3)no2)n(C)n1 (stereo not drawn) [Compound 1.16, CC(C1=CC=CC=C1)NC(CC2=NOC(C3=CC(C)=NN3C)=N2)=O]	-2 % of Carbachol and 14 % of Carbachol and 5 % of Carbachol	–	–
CC(NC(=O)Cn1cncc(-c2ccccc2)c1=O)c1ccccc1 (stereo not drawn) [Compound 5, C[C@@H](NC(=O)CN1C=NC=C(C=2C=CC=CC2)C1=O)C=3C=CC=CC3]	–	-15 % of Carbachol and -5 % of Carbachol	–
COc1cc(-c2nc(CC(=O)NC(C)c3ccccc3)no2)ccn1 (stereo not drawn) [Compound 1.7, COC1=NC=CC(C2=NC(CC(NC(C3=CC=CC=C3)C)=O)=NO2)=C1]	-3 % of Carbachol and 5.61 % of Carbachol and 2.51 % of Carbachol	–	–
COc1cc(OC)cc(C(=O)NNC(=O)Nc2cccc3ccccc23)c1 [Lundbeck Cmp 1a, reference compound]	–	–	Ca2+ signal (% of Carbachol) (10 µM, individual replicates (Supplementary Figure 2)): -13 % of Carbachol and 8 % of Carbachol; Ca2+ signal (% of Carbachol) (10 µM, individual replicates (Supplementary Figure 5)): -0.591 % of Carbachol and 1.3 % of Carbachol and 0.449 % of Carbachol
Cc1noc(C(C)NC(=O)Nc2cccc(-c3ccccc3)c2)n1 (stereo not drawn) [Compound 3, CC(NC(=O)NC=1C=CC=C(C1)C=2C=CC=CC2)C3=NC(C)=NO3]	–	-13 % of Carbachol and -10 % of Carbachol	–
Cc1noc(CNC(=O)C2(C)CCCCN2C(=O)c2ccccc2)n1 (stereo not drawn) [Compound 4, CC1=NOC(CNC(=O)C2(C)CCCCN2C(=O)C=3C=CC=CC3)=N1]	–	-17 % of Carbachol and -15 % of Carbachol	–
Cc1nocc1-c1nc(CC(=O)NC(C)c2ccccc2)no1 (stereo not drawn) [Compound 1.5, CC(C1=CC=CC=C1)NC(CC2=NOC(C3=CON=C3C)=N2)=O]	5 % of Carbachol and 6 % of Carbachol and 8 % of Carbachol	–	–
